Assay results reported in US12172959B2, “Mono- or di-substituted indole derivatives as dengue viral replication inhibitors” (priority 2015, dated 2024).

How the values were obtained:
DENV-1 strain TC974#666 = test: Tetravalent RT-qPCR assay Protocol A, serotype 1; type: cell-based; conditions: Dengue virus, DENV1, 72 h, RT-qPCR serotype 1 TC974#666, Vero cells, day 3
Method in brief: (§1)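 Vero cells in MEM with 2% FCS were infected with DENV in the presence of compound and incubated for 3 days at 37° C. Lysates underwent RT and duplex qPCR for the viral 3′UTR and β-actin. EC50 came from ΔΔCp normalized to β-actin, and CC50 from the β-actin signal.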

DENV-3 strain H87 = test: Tetravalent RT-qPCR assay Protocol A, serotype 3; type: cell-based; conditions: Dengue virus, DENV3, 72 h, RT-qPCR serotype 3 H87, Vero cells, day 3
Method in brief: as §1

DENV-4 strain H241 = test: Tetravalent RT-qPCR assay Protocol A, serotype 4 H241; type: cell-based; conditions: Dengue virus, DENV4, 72 h; Protocol A, RT-qPCR serotype 4 H241, Vero cells, day 3; read-out: EC50
Method in brief: as §1

[1] = system: DENV-4 strain SG/06K2270DK1/2005 (Eden); test: Tetravalent RT-qPCR assay Protocol A, serotype 4 EDEN; type: cell-based; conditions: Dengue virus, DENV4, Vero, 72 h
Method: The antiviral activity of the compounds of the invention was tested against DENV-1 strain TC974#666 (NCPV; Table 6), DENV-2 strain 16681 (Table 7), DENV-3 strain H87 (NCPV; Table 8) and DENV-4 strains H241 (NCPV; Table 9A) and SG/06K2270DK1/2005 (Eden; Table 9B) in a RT-qPCR assay. Therefore, Vero cells were infected with either DENV-1, or -2, or -3, or -4 in the presence or absence of test compounds. At day 3 post-infection, the cells were lysed and cell lysates were used to prepare cDNA of both a viral target (the 3′UTR of DENV; Table 2) and a cellular reference gene (β-actin, Table 2). Subsequently, a duplex real time PCR was performed on a Lightcycler480 instrument. The generated Cp value is inversely proportional to the amount of RNA expression of these targets. Inhibition of DENV replication by test compound results in a shift of Cp's for the 3′UTR gene. On the other hand, if a test compound is toxic to the cells, a similar effect on β-actin expression will be observed. The comparative ΔΔCp method is used to calculate EC50, which is based on the relative gene expression of the target gene (3′UTR) normalized with the cellular housekeeping gene (β-actin).
The culture medium consisted of minimal essential medium supplemented with 2% of heat-inactivated fetal calf serum, 0.04% gentamycin (50 mg/mL) and 2 mM of L-glutamine. Vero cells, obtained from ECACC, were suspended in culture medium and 75 μL/well was added in 96-well plates (10000 cells/well), which already contain the antiviral compounds. […] In addition, each plate contains wells which are assigned as virus controls (containing cells and virus in the absence of compound) and cell controls (containing cells in the absence of virus and compound). Once the cells were added in the plates, the plates were incubated in a fully humidified incubator (37° C., 5% CO2) until the next day. Dengue viruses serotype-1, 2, 3 and 4 were diluted in order to obtain a Cp of ˜22-24 in the assay. Therefore, 25 μL of virus suspension was added to all the wells containing test compound and to the wells assigned as virus control. In parallel, 25 μL of culture medium was added to the cell controls. Next, the plates were incubated for 3 days in a fully humidified incubator (37° C., 5% CO2). After 3 days, the supernatant was removed from the wells and the cells were washed twice with ice-cold PBS (˜100 μL). The cell pellets within the 96-well plates were stored at −80° C. for at least 1 day. Next, RNA was extracted using the Cells-to-CT™ lysis kit, according to the manufacturer's guideline (Life Technologies). The cell lysates can be stored at −80° C. or immediately used in the reverse transcription step.
In preparation of the reverse transcription step, mix A (table 3A) was prepared and 7.57 μL/well was dispensed in a 96-well plate. After addition of 5 μL of the cell lysates, a five minute denaturation step at 75° C. was performed (table 3B). Afterwards, 7.43 μL of mix B was added (table 3C) and the reverse transcription step was initiated (table 3D) to generate cDNA.
Finally, a RT-qPCR mix was prepared, mix C (table 4A), and 22.02 μL/well was dispensed in 96-well LightCycler qPCR plates to which 3 μL of cDNA was added and the qPCR was performed according to the conditions in table 4B on a LightCycler 480.
Using the LightCycler software and an in-house LIMS system, dose response curves for each compound were calculated and the half maximal effective concentration (EC50) and the half maximal cytotoxic concentration (CC50) were determined.

in vitro = type: cell-based; conditions: African green monkey, CC50
Method: (§2) Potential cytotoxic effects of the compounds were evaluated in uninfected quiescent Vero-B or Vero-M cells. Cells were seeded at 5×10^4 cells/well in a 96-well plate in the presence of two-, three- or five-fold serial dilutions (ranging from 50 μg/mL-0.0038 μg/mL, 50 μg/mL-0.0076 μg/mL, and 50 μg/mL-0.00013 μg/mL, respectively) of compound and incubated for 4 to 7 days. Culture medium was discarded and 100 μL 3-(4,5-dimethylthiazol-2-yl)-5-(3-carboxy-methoxyphenyl)-2-(4-sulfophenyl)-2H-tetrazolium/phenazinemethosulfate (MTS/PMS; Promega, Leiden, The Netherlands) in PBS was added to each well. Following a 2-hour incubation period at 37° C., the optical density was determined at 498 nm. Cytotoxic activity was calculated using the following formula: % cell viability=100×(ODCompound/ODCC), where ODCompound and ODCC correspond to the optical density at 498 nm of the uninfected cell cultures treated with compound and that of uninfected, untreated cell cultures, respectively. The 50% cytotoxic concentration (i.e., the concentration that reduces the total cell number with 50%; CC50) was calculated using linear interpolation.

[2] = system: uninfected quiescent Vero-B or Vero-M cells; test: in vitro; type: cell-based; conditions: African green monkey
Method: as §2

Vero cells = conditions: African green monkey

SMILES | EC50 (DENV-1 strain TC974#666) | EC50 (DENV-3 strain H87) | EC50 (DENV-4 strain H241) | EC50 [1] | CC50 (in vitro) | CC50 [2] | CC50 (Vero cells)
COc1cc(NC(C(=O)c2c[nH]c3cc(F)ccc23)c2ccc(Cl)cc2OC)cc(S(C)(=O)=O)c1 (single isomer, unassigned) [Compound 1A, 2-(4-chloro-2-methoxyphenyl)-1-(6-fluoro-1H-indol-3-yl)-2-((3-methoxy-5-(methylsulfonyl)phenyl)amino)ethanone] | 2.5 nM | 23 nM | 93 nM | 2.4 nM | 8000 nM | 11000 nM | 4300 nM
COc1cc(NC(C(=O)c2c[nH]c3c(C)c(F)ccc23)c2ccc(Cl)cc2OC)cc(S(C)(=O)=O)c1 (single isomer, unassigned) [Compound 2A, 2-(4-chloro-2-methoxyphenyl)-1-(6-fluoro-7-methyl-1H-indol-3-yl)-2-((3-methoxy-5-(methylsulfonyl)phenyl)amino)ethanone] | 2.4 nM | 19 nM | 83 nM | 1.3 nM | 7300 nM | 11000 nM | 4800 nM
COc1cc(NC(C(=O)c2c[nH]c3cc(OC)c(C)cc23)c2ccc(Cl)cc2OC)cc(S(C)(=O)=O)c1 (single isomer, unassigned) [Compound 4A, 2-(4-chloro-2-methoxyphenyl)-2-((3-methoxy-5-(methyl-sulfonyl)phenyl)amino)-1-(6-methoxy-5-methyl-1H-indol-3-yl)ethanone] | 0.97 nM | 15 nM | 53 nM | 0.55 nM | 4300 nM | 6600 nM | 4200 nM
COc1cc(NC(C(=O)c2c[nH]c3cc(OC)c(F)cc23)c2ccc(Cl)cc2OC)cc(S(C)(=O)=O)c1 (single isomer, unassigned) [Compound 5A, 2-(4-chloro-2-methoxyphenyl)-1-(5-fluoro-6-methoxy-1H-indol-3-yl)-2-((3-methoxy-5-(methylsulfonyl)phenyl)amino)ethanone] | 3.6 nM | 53 nM | 100 nM | 2.9 nM | 9200 nM | – | 5000 nM
COc1cc(NC(C(=O)c2c[nH]c3c(C)c(OC)ccc23)c2ccc(Cl)cc2OC)cc(S(C)(=O)=O)c1 (single isomer, unassigned) [Compound 6A, 2-(4-chloro-2-methoxyphenyl)-2-((3-methoxy-5-(methyl-sulfonyl)phenyl)amino)-1-(6-methoxy-7-methyl-1H-indol-3-yl)ethanone] | 1.6 nM | 19 nM | 95 nM | 0.42 nM | > 92000 nM | > 92000 nM | > 25000 nM
